Laboratory results published in patent US10583143B2, “Methods and compositions for the treatment or prevention of abnormal bone formation in a soft tissue” (THE BRIGHAM AND WOMEN'S HOSPITAL, INC., priority 2015, dated 2020).
“Also recorded” adds a separate entry of the source.

What was measured:
[1] = tested on: ACVR1^Q207D (CAG-Z-EGFP-caALK2) transgenic mice; assay: Inducible ACVR1^Q207D-Tg (CAG-Z-EGFP-caALK2) mouse model of heterotopic ossification / FOP; details: for heterotopic bone lesions on x-ray: 6 mg/kg i.p. twice daily; for passive range-of-motion: 6 mg/kg intraperitoneally twice daily
ALK4/ACVR1B = biological target: T1, ALK4/ACVR1B (Homo sapiens, UniProt P36896); assay: CAGA-Luc luciferase reporter in HEK293 cells driven by constitutively active ALK4; type: cell-based; details: Ad.caALK4, read-out: IC50 inhibition of caALK4 activity (CAGA-Luc)
T1 sequence (P36896 1-505 T206D): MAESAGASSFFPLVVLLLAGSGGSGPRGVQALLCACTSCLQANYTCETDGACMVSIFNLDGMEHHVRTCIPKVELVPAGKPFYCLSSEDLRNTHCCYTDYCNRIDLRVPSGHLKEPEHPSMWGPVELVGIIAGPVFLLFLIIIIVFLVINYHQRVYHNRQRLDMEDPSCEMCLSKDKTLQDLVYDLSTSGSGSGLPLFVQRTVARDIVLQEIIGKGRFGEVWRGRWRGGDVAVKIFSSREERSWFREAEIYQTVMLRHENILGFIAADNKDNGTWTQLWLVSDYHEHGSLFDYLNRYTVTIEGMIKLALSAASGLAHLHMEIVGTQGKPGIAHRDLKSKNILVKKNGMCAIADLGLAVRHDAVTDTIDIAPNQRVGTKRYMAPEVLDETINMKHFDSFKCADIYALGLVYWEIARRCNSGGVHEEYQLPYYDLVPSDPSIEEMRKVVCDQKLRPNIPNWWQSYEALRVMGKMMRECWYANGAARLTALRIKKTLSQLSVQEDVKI
Method: (§1) Inhibition of BMP-mediated gene transcription was measured via the activity of a BMP-response element luciferase reporter (BRE-Luc) stably expressed in the C2C12 cell line as a measure of BMP signaling inhibition, with gene expression being driven by constitutively active (ca-) forms of BMP type I receptors ALK1, ALK2, and ALK3 (FIG. 1). This was measured in comparison to the inhibition of TGF-β or Activin signaling via CAGA-Luc reporter construct stably expressed in HEK293 cells, with gene expression being driven by constitutively active (ca-) forms of Activin/TGF=β type I receptors ALK4 or ALK5 (FIG. 1). […]. C2C12 myofibroblast cells stably expressing firefly luciferase under the control of BMP-responsive promoter element (BRE-Luc) were generously provided by Dr. Peter ten Dijke (Leiden University Medical Center, NL). Human embryonic kidney 293T cells stably transfected with the TGF-β-responsive element fused to luciferase gene (CAGA-Luc) were a kind gift of Dr. Howard Weiner (Brigham and Women's Hospital, Boston, Mass.). […] Media was discarded and firefly luciferase activity was measured (Promega™) according to manufacturer's protocol. Light output was measured using a Spectramax™ L luminometer (Molecular Devices™) with an integration time of one second per well. […]

[2] = 60 mg to 250 mg p.o. per day; cited from earlier work
ALK5/TGFBR1 = biological target: T2, ALK5/TGFBR1 (Homo sapiens, UniProt P36897, T204D); assay: CAGA-Luc luciferase reporter in HEK293 cells driven by constitutively active ALK5; type: cell-based; details: Ad.caALK5, read-out: IC50 inhibition of caALK5 activity (CAGA-Luc)
T2 construct: expressed in transfected cells; host or cells: 293T CAGA-Luc cells infected with Ad.caALK5 (gift of Dr. Akiko Hata)
T2 sequence (P36897 34-503 T204D): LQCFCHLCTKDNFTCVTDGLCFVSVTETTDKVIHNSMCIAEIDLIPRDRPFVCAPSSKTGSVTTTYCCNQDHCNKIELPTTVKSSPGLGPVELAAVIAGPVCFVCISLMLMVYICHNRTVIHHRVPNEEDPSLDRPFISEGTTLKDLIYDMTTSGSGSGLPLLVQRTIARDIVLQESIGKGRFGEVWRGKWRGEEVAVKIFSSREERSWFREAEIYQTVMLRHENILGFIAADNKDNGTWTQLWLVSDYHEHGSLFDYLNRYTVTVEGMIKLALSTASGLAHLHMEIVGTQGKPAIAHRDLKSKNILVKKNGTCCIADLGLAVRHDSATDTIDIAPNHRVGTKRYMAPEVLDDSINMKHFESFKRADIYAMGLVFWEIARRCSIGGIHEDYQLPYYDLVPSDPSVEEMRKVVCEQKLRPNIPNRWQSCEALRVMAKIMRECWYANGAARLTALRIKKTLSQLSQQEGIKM
Method: as §1

[3] = tested on: ACVR1^[R206H]FlEx/+] knock-in mice; assay: ACVR1^[R206H]FlEx/+] knock-in mouse model of FOP
Method: Mice were maintained in accordance with Institutional Animal Care and Use Committee guidelines under approved experimental protocols. […] Heterotopic bone formation in these mice was introduced via single retro-popliteal injection of adenoviral Cre-recombinase at 1×10^8 PFU at postnatal day 7 (P7). […] Bone formation as a function of a loss of passive range of motion, via dorsiflexion of the left ankle joint was assessed daily. […] On day 35 for inducible ACVR1^Q207D mice, and on day 90-120 for inducible ACVR1^R206H mice were sacrificed and imaged via X-ray radiography (MS FX In-Vivo Pro: Carestream Health). Micro-computed tomography (micro-CT) imaging was carried out on samples fixed overnight in 1% paraformaldehyde followed by scanning (μCT35, ScanCo).

[4] = tested on: constitutively activated ALK1-5; assay: Cell-based luciferase reporter assays with constitutively activated ALK1-5, potency comparison; details: ALK1-5, BRE-Luc / CAGA-Luc
Text: […]. Inhibition curves of BMP and TGF-β transcriptional activity mediated by constitutively activated ALK1-5 in a cell-based luciferase reporter assays. […]. Data shown are representative of more than 3 independent experiments, with data plotted as mean±S.E.M. (n=3 replicates)
C2C12 myofibroblast cells stably expressing firefly luciferase under the control of BMP-responsive promoter element (BRE-Luc) were generously provided by Dr. Peter ten Dijke (Leiden University Medical Center, NL). Human embryonic kidney 293T cells stably transfected with the TGF-β-responsive element fused to luciferase gene (CAGA-Luc) were a kind gift of Dr. Howard Weiner (Brigham and Women's Hospital, Boston, Mass.). C2C12 Bre-Luc and 293T CAGA-Luc cells were seeded at 20,000 cells in DMEM supplemented with 2% FBS per well in tissue culture treated 96-well plates (Costar® 3610; Corning). The cells were incubated for 1 h (37° C. and 10% CO2) and allowed to settle and attach. […]. Cells were then incubated for 30 min. […] Media was discarded and firefly luciferase activity was measured (Promega™) according to manufacturer's protocol. Light output was measured using a Spectramax™ L luminometer (Molecular Devices™) with an integration time of one second per well. […]

[5] = 25 mg/kg intraperitoneally twice daily for 28 days
[6] = 25 mg/kg oral gavage daily for first 28 days only, observed up to 90 days

COc1cc2c(Nc3ccc(Br)cc3F)ncnc2cc1OCC1CCN(C)CC1 [ZD-6474]
radiographic heterotopic ossification [1, 5]: did not significantly attenuate; also recorded: no evidence of improvement | range-of motion [1, 5]: no evidence of improvement

c1ccc2c(-c3cnn4cc(-c5ccc(N6CCNCC6)cc5)cnc34)ccnc2c1 [LDN-193189]
heterotopic bone lesions on x-ray [1]: preventing heterotopic bone lesions | passive range-of-motion [1]: effective in preserving range of motion; also recorded: mobility was almost entirely preserved

CN1CCN(CCOc2cc(OC3CCOCC3)c3c(Nc4c(Cl)ccc5c4OCO5)ncnc3c2)CC1 [AZD-0530, N-(5-chloro-1,3-benzodioxol-4-yl)-7-[2-(4-methylpiperazin-1-yl)ethoxy]-5-[(tetrahydro-2H-pyran-4-yl)oxy]quinazolin-4-amine]
IC50 (ALK4/ACVR1B): 0.22 µM | tolerability in healthy human adults [2]: good tolerability | IC50 (ALK5/TGFBR1): 0.22 µM | change in weight compared to vehicle treated controls ([3]; 25 mg/kg oral gavage daily for 28 days): No statistically significant change | progressive loss of range of motion [3, 6]: protected | radiographic bone formation [3, 6]: protected | decreased potency against all receptors compared with LDN-193189 [4]: approximately 10 fold

c1cc(-c2cnn3cc(-c4ccc(N5CCNCC5)cc4)cnc23)c2cccnc2c1 [LDN-212854]
heterotopic bone lesions on x-ray [1]: preventing heterotopic bone lesions | passive range-of-motion [1]: effective in preserving range of motion; also recorded: mobility was almost entirely preserved
